SMILES strings stand for the structures. Counter-ions that a name gives are not always drawn. *1 amine or outer side, *2 acyl side, *3 side chain or, on linkers, in order; H or OH if unused. Where a SMILES comes first, the peptide text is derived from it. [ ]: non-standard residue; d: D form. X14 = CCOC(=O)C(C(=O)OCC)C1C=NN([*:1])[C@H](C(=O)[*:2])C1; X2 = O=C([C@@H]1[C@@H](O)[C@@H](O)C=NN1[*:1])[*:2]; X6 = CN(C)C[C@H]1C=NN([*:1])[C@H](C(=O)[*:2])C1; X4 = CN(C)CCNC1C=NN([*:1])[C@H](C(=O)[*:2])C1; X8 = O=C([C@@H]1CC(N2CCCC2)C=NN1[*:1])[*:2]; X3 = C=C1C=NN([*:1])[C@H](C(=O)[*:2])C1; dPiz(1,6-dehydro) = O=C(O)[C@H]1CCC=NN1; X1 = O=C([C@H]1CCCNN1[*:1])[*:2]; dNMeF = CN[C@H](Cc1ccccc1)C(=O)O Bounds are passed on as bounds.

One assay deals with T1, uterine OT receptors (Rattus norvegicus, UniProt P70536).
T1 construct: from tissue; host or cells: uterus of DES-treated rats, crude membranes
T1 sequence (P70536 1-388): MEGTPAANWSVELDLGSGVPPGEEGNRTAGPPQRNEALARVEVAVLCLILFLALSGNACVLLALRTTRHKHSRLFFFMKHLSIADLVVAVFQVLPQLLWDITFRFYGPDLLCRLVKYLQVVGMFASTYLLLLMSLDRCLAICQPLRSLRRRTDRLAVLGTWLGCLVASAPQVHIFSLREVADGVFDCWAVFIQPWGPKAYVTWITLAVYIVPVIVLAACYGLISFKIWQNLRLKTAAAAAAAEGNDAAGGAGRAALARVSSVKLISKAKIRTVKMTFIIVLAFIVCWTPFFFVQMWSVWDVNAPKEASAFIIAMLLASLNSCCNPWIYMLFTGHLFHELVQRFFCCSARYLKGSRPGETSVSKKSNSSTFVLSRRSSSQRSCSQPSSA
The experiment in a line: [3H]OT radioligand binding to uterine OT receptors, crude membrane preparation. The note with it: uteri of DES-treated rats; 1 nM [3H]OT; 60 min, 22° C.; inhibits specific binding by 50%; read-out: Receptor Binding Results IC50 (nM) [3H]OT. As to the method: The high affinity binding of [^3 H]OT ([tyrosyl, 3,5-[^3 H]OT; 30-60 Ci/mmol; New England Nuclear Boston, Mass.) to uterine OT receptors was based on an assay* using a crude membrane preparation of uteri taken from diethylstilbestrol dipropionate (DES)-treated (0.3 mg/kg, ip; 18-24) rats. Competition studies were conducted at equilibrium (60 min; 22° C.) using 1 nM [^3 H]OT in the following assay buffer: 50 mM Tris-HCl, 5 mM MgCl2, and 0.1% BSA, pH 7.4. Nonspecific binding (10% of the total binding) was determined using 1 μM unlabeled OT and the binding reaction was terminated by filtration through glass fiber filters using a cell harvester (model 7019, Skatron, Inc., Sterling, Va.).
*Fuchs, A-R; Fuchs, F; Soloff, MS. 1985 J. Clin. Endocrinol. Metab. 60:37.

The target in the next assay is AVP-V1 sites (Rattus norvegicus, UniProt P30560). The assay is described as follows: [3H]AVP radioligand binding to male rat liver crude membrane preparation (AVP-V1 sites). The note with it: male rat liver membranes; 1 nM [3H]AVP; 30 min at 30° C.; read-out: Receptor Binding Results IC50 (nM) [^3 H]-AVP-V1. The method, then: (§1) Nonspecific binding (5-10% of the total binding) was determined using 10 μM unlabeled AVP, and the binding reaction was terminated by filtration as described above for the [^3 H]OT binding assay.
(§2) +Butlen, D; Guillon, G; Rajerison, RM; Jard, S; Sawyer, WH; Manning, M. 1978 Mol Pharmacol 14:1006.

A further assay deals with AVP-V2 sites (Rattus norvegicus, UniProt Q00788). The assay is described as follows: [3H]AVP radioligand binding to rat kidney medulla crude membrane preparation (AVP-V2 sites). To be noted: rat kidney medulla membranes; 2 nM [3H]AVP; 30 min at 30° C.; read-out: Receptor Binding Results IC50 (nM) [^3 H]-AVP-V2. As to the method: as §1, §2
AVP-V2 sites, sequence (Q00788 whole entry): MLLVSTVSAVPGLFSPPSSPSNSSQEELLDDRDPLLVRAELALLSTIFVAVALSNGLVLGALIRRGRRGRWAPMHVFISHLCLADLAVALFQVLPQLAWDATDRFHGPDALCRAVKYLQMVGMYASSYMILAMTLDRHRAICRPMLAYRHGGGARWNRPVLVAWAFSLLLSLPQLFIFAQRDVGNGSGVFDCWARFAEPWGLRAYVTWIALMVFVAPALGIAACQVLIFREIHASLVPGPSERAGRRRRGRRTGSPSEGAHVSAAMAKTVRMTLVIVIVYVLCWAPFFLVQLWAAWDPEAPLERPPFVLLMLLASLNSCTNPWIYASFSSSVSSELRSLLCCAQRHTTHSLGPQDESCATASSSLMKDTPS

AVP-V1 sites, sequence (P30560 whole entry): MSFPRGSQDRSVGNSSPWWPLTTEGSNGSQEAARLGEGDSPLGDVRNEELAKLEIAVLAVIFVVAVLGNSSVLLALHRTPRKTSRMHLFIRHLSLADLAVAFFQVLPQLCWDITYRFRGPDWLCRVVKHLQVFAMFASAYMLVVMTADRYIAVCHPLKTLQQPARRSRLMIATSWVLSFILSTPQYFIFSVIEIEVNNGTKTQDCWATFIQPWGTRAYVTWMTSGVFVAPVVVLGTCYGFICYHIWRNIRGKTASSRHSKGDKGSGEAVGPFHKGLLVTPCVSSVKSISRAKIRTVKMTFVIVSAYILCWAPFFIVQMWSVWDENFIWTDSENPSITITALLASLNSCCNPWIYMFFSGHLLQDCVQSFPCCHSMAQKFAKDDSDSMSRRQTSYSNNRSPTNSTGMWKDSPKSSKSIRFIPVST

`CC[C@H](C)[C@@H]1NC(=O)[C@@H](Cc2ccccc2)NC(=O)[C@@H]2CCCN2C(=O)[C@@H](Cc2ccccc2)N(C)C(=O)[C@@H]2[C@@H](O)[C@@H](O)C=NN2C(=O)[C@H]2CCCNN2C1=O` [Example 14, cyclo-[D-Phenylalanyl-L-isoleucyl-D-hexahydro-3-pyridazinecarbonyl-(3α,4β,5β)-4,5-dihydroxy-L-2,3,4,5-tetrahydro-3-pyridazinecarbonyl-N-methyl-D-phenylalanyl-L-prolyl]trifluoroacetate salt.] (cyclo(I[X1][X2][dNMeF]P[dF])): the IC50 on uterine OT receptors is 290 nM; at AVP-V1 sites, 10000 nM; on AVP-V2 sites, above 10000 nM.
On the same counts, the results for `CC[C@H](C)[C@@H]1NC(=O)[C@@H](Cc2ccccc2)NC(=O)[C@@H]2CCCN2C(=O)[C@@H](Cc2ccccc2)N(C)C(=O)[C@@H]2CC(N3CCCC3)C=NN2C(=O)[C@H]2CCC=NN2C1=O` (stereo partly drawn) [Example 15, cyclo-[D-Phenylalanyl-L-isoleucyl-D-2,3,4,5-tetrahydro-3-pyridazinecarbonyl-5-(1-pyrolidinyl)-L-2,3,4,5-tetrahydro-3-pyridazinecarbonyl-N-methyl-D-phenylalanyl-L-prolyl] trifluoroacetate] (cyclo(I[dPiz(1,6-dehydro)][X8][dNMeF]P[dF])) are 600 nM, 8800 nM and 11000 nM.
In the same order, the values of `CC[C@H](C)[C@@H]1NC(=O)[C@@H](Cc2ccccc2)NC(=O)[C@@H]2CCCN2C(=O)[C@@H](Cc2ccccc2)N(C)C(=O)[C@@H]2CC(NCCN(C)C)C=NN2C(=O)[C@H]2CCC=NN2C1=O` (stereo partly drawn) [Example 16, cyclo-[D-Phenylalanyl-L-isoleucyl-D-2,3,4,5-tetrahydro-3-pyridazinecarbonyl-5-((2-dimethylamino)ethylamino)-L-2,3,4,5,-tetrahydro-3-pyridazinecarbonyl-N-methyl-D-phenylalanyl-L-prolyl] (trifluoroacetate) (High Rf isomer)] (cyclo(I[dPiz(1,6-dehydro)][X4][dNMeF]P[dF])) are 220 nM, 930 nM and 7300 nM.
On the same counts, the results for `CCOC(=O)C(C(=O)OCC)C1C=NN2C(=O)[C@H]3CCC=NN3C(=O)[C@H]([C@@H](C)CC)NC(=O)[C@@H](Cc3ccccc3)NC(=O)[C@@H]3CCCN3C(=O)[C@@H](Cc3ccccc3)N(C)C(=O)[C@@H]2C1` (stereo partly drawn) [Example 17, cyclo-[D-Phenylalanyl-L-isoleucyl-D-2,3,4,5-tetrahydro-3-pyridazinecarbonyl-5-(2-ethoxy-1-(ethoxycarbonyl)-2-oxoethyl)-L-2,3,4,5,-tetrahydro-3-pyridazinecarbonyl-N-methyl-D-phenylalanyl-L-prolyl] (trifluoroacetate)] (cyclo(I[dPiz(1,6-dehydro)][X14][dNMeF]P[dF])) are 200 nM, 3000 nM and 2400 nM.
On to `CC[C@H](C)[C@@H]1NC(=O)[C@@H](Cc2ccccc2)NC(=O)[C@@H]2CCCN2C(=O)[C@@H](Cc2ccccc2)N(C)C(=O)[C@@H]2C[C@@H](CN(C)C)C=NN2C(=O)[C@H]2CCC=NN2C1=O` [Example 18, cyclo-[D-Phenylalanyl-L-isoleucyl-D-2,3,4,5-tetrahydro-3-pyridazinecarbonyl-trans-5-(dimethylamino)methyl-L-2,3,4,5,-tetrahydro-3-pyridazinecarbonyl-N-methyl-D-phenylalanyl-L-prolyl] monoacetate] (cyclo(I[dPiz(1,6-dehydro)][X6][dNMeF]P[dF])), for which the IC50 was 7.8 nM on uterine OT receptors, 1850 nM on AVP-V1 sites and 2800 nM on AVP-V2 sites.
In the same order, the values of `C=C1C=NN2C(=O)[C@H]3CCC=NN3C(=O)[C@H]([C@@H](C)CC)NC(=S)[C@@H](Cc3ccccc3)NC(=O)[C@@H]3CCCN3C(=O)[C@@H](Cc3ccccc3)N(C)C(=O)[C@@H]2C1` [Example 19, cyclo-[D-Thiophenylalanyl-L-isoleucyl-D-2,3,4,5-tetrahydro-3-pyridazinecarbonyl-5-methylene-L-2,3,4,5-tetrahydro-3-pyridazinecarbonyl-N-methyl-D-phenylalanyl-L-prolyl]] are 3.6 nM, above 1000 nM and above 1000 nM.
In the same order, the values of `C=C1C=NN2C(=O)[C@H]3CCC=NN3C(=O)[C@H]([C@@H](C)CC)NC(=O)[C@@H](Cc3ccccc3)NC(=O)[C@@H]3CCCN3C(=O)[C@@H](Cc3ccccc3)N(C)C(=O)[C@@H]2C1` [Example 20, cyclo-[D-Phenylalanyl-L-isoleucyl-D-2,3,4,5-tetrahydro-3-pyridazinecarbonyl-5-methylene-L-2,3,4,5,-tetrahydro-3-pyridazinecarbonyl-N-methyl-D-phenylalanyl-L-prolyl]] (cyclo(I[dPiz(1,6-dehydro)][X3][dNMeF]P[dF])) are 37 nM, above 10000 nM and above 10000 nM.
